# Measurements from patent publication US10206937B2, “Boronic acid derivatives and therapeutic uses thereof” (Qpex Biopharma, Inc., priority 2014, dated 2019).
# Tested on: strains of Enterobacteriaceae producing various carbapenemases (class A, D and B; 104 strains)
# Assay: Antibiotics potentiation by Compound 27 (MIC; meropenem, doripenem, ertapenem, cefepime)
# Type: cell-based
# Settings: + 27 = with Compound 27 at fixed 4 μg/ml
smiles,measurement,setting,value
COc1ccc2c(c1C(=O)O)OB(O)C(Sc1nnc(N)s1)C2 (stereo not shown) [E + 27],MIC,strain CF1012 Citrobacter freundii (KPC-2),X (MIC of less than 1 μg/mL)
same,MIC,strain CF1021 Citrobacter freundii (CMY-type; VIM-1),X (MIC of less than 1 μg/mL)
same,MIC,"strain CF1022 Citrobacter freundii (SHV-12(2be), TEM-OSBL(2b); IMP-8)",X (MIC of less than 1 μg/mL)
same,MIC,"strain CF1023 Citrobacter freundii (SHV-12(2be), TEM-OSBL(2b); CTX-M-3; CMY-34; NDM-1)",X (MIC of less than 1 μg/mL)
same,MIC,strain CL1080 Enterobacter cloacae (IMP-1),Y (MIC of 1 μg/mL to 10 μg/mL)
same,MIC,"strain EA1019 Enterobacter aerogenes (SHV-5, VIM-1)",X (MIC of less than 1 μg/mL)
same,MIC,strain EC1007 Escherichia coli (KPC-3),X (MIC of less than 1 μg/mL)
same,MIC,"strain EC1061 Escherichia coli (NDM-1, CMY-6)",X (MIC of less than 1 μg/mL)
same,MIC,"strain EC1062 Escherichia coli (OXA-48, CTX-M-15)",X (MIC of less than 1 μg/mL)
same,MIC,"strain EC1064 Escherichia coli (NDM-1, CMY-6, CTX-M-15)",Z (MIC of greater than 10 μg/mL)
same,MIC,strain EC1065 Escherichia coli (IMP-1),X (MIC of less than 1 μg/mL)
same,MIC,strain EC1068 Escherichia coli (VIM-1),X (MIC of less than 1 μg/mL)
same,MIC,strain EC1069 Escherichia coli (CTX-M-27; NDM-1),X (MIC of less than 1 μg/mL)
same,MIC,strain EC1070 Escherichia coli (TEM-OSBL(2b); CMY-42; NDM-5),X (MIC of less than 1 μg/mL)
same,MIC,strain EC1072 Escherichia coli (CTX-M-3; NDM-1),X (MIC of less than 1 μg/mL)
same,MIC,strain ECL1004 Enterobacter cloacae (NMC-A),X (MIC of less than 1 μg/mL)
same,MIC,"strain ECL1026 Enterobacter cloacae (KPC-2, TEM-1)",X (MIC of less than 1 μg/mL)
same,MIC,"strain ECL1036 Enterobacter cloacae (KPC-3, TEM-1)",X (MIC of less than 1 μg/mL)
same,MIC,strain ECL1045 Enterobacter cloacae (VIM-1),Y (MIC of 1 μg/mL to 10 μg/mL)
same,MIC,"strain ECL1055 Enterobacter cloacae (KPC-3, TEM)",X (MIC of less than 1 μg/mL)
same,MIC,"strain ECL1057 Enterobacter cloacae (NDM-1, TEM-1, CTX-M-15)",Z (MIC of greater than 10 μg/mL)
same,MIC,"strain ECL1058 Enterobacter cloacae (KPC-3, SHV-11, TEM-1)",Y (MIC of 1 μg/mL to 10 μg/mL)
same,MIC,"strain ECL1059 Enterobacter cloacae (KPC-3, SHV-12, TEM-1)",X (MIC of less than 1 μg/mL)
same,MIC,"strain ECL1061 Enterobacter cloacae (KPC-3, Hyper AmpC expression)",Y (MIC of 1 μg/mL to 10 μg/mL)
same,MIC,strain ECL1082 Enterobacter cloacae (VIM-1),X (MIC of less than 1 μg/mL)
same,MIC,strain ECL1084 Enterobacter cloacae (CTX-M-15; ACT-16; NDM-1),X (MIC of less than 1 μg/mL)
same,MIC,"strain ECL1085 Enterobacter cloacae (SHV-31(2be), TEM-1(2b); CTX-M-15; NDM-1)",X (MIC of less than 1 μg/mL)
same,MIC,"strain ECL1086 Enterobacter cloacae (VIM-31, OXA-48(c))",Y (MIC of 1 μg/mL to 10 μg/mL)
same,MIC,strain ECL1087 Enterobacter cloacae (VIM-1),X (MIC of less than 1 μg/mL)
same,MIC,strain ECL1088 Enterobacter cloacae (TEM-1(2b); CTX-M-14; ACT-type; VIM-1),X (MIC of less than 1 μg/mL)
same,MIC,strain ECL1089 Enterobacter cloacae (ACT-type; IMP-1),Z (MIC of greater than 10 μg/mL)
same,MIC,strain ECL1090 Enterobacter cloacae (TEM-1(2b); CTX-M-22; ACT-type; IMP-8),X (MIC of less than 1 μg/mL)
same,MIC,strain ECL1091 Enterobacter cloacae (VIM-1),X (MIC of less than 1 μg/mL)
same,MIC,strain ECL1092 Enterobacter cloacae (TEM-OSBL(2b); ACT-32; VIM-1),X (MIC of less than 1 μg/mL)
same,MIC,strain ECL1093 Enterobacter cloacae (TEM-OSBL(2b); ACT-32; VIM-1),X (MIC of less than 1 μg/mL)
same,MIC,strain ECL1094 Enterobacter cloacae (VIM-1),Y (MIC of 1 μg/mL to 10 μg/mL)
same,MIC,"strain ECL1096 Enterobacter cloacae (CMY-4, VIM-4, OXA-48(c))",X (MIC of less than 1 μg/mL)
same,MIC,"strain ECL1097 Enterobacter cloacae (SHV-31(2be), TEM-OSBL(2b); CTX-M-15; ACT-31; NDM-1)",X (MIC of less than 1 μg/mL)
same,MIC,strain ECL1098 Enterobacter cloacae (TEM-OSBL(2b); DHA-1; ACT-16; NDM-1),X (MIC of less than 1 μg/mL)
same,MIC,strain KP1001 Klebsiella pneumoniae (KPC TEM SHV),Z (MIC of greater than 10 μg/mL)
same,MIC,strain KP1002 Klebsiella pneumoniae (KPC TEM SHV),X (MIC of less than 1 μg/mL)
same,MIC,strain KP1003 Klebsiella pneumoniae (KPC TEM SHV),X (MIC of less than 1 μg/mL)
same,MIC,"strain KP1004 Klebsiella pneumoniae (KPC-2, TEM-1, SHV-11)",X (MIC of less than 1 μg/mL)
same,MIC,strain KP1008 Klebsiella pneumoniae (KPC-2),X (MIC of less than 1 μg/mL)
same,MIC,"strain KP1014 Klebsiella pneumoniae (VIM-1, TEM, SHV)",X (MIC of less than 1 μg/mL)
same,MIC,"strain KP1054 Klebsiella pneumoniae (VIM-1, SHV-11)",X (MIC of less than 1 μg/mL)
same,MIC,"strain KP1059 Klebsiella pneumoniae (VIM-1, SHV-11)",Y (MIC of 1 μg/mL to 10 μg/mL)
same,MIC,"strain KP1061 Klebsiella pneumoniae (KPC-3, SHV-11, TEM-1)",X (MIC of less than 1 μg/mL)
same,MIC,"strain KP1064 Klebsiella pneumoniae (KPC-2, SHV-11, TEM-1)",Z (MIC of greater than 10 μg/mL)
same,MIC,"strain KP1065 Klebsiella pneumoniae (VIM-1, SHV-11)",X (MIC of less than 1 μg/mL)
same,MIC,"strain KP1070 Klebsiella pneumoniae (KPC-2, SHV-11, TEM-1)",X (MIC of less than 1 μg/mL)
same,MIC,"strain KP1074 Klebsiella pneumoniae (KPC-3, SHV-11, TEM)",Z (MIC of greater than 10 μg/mL)
